In the supplement of paper PMC8671470:

Experiments:
Assay in all cases: cell viability (% survival relative to DMSO control); higher = less cytotoxic
Conditions in all cases: 72 h
[1] = system: myeloid leukemia patient primary cells Pat.14
Procedure, shortened: (§1)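 Mononuclear cells from patients with AML or CML were thawed, purified on Ficoll and placed in RPMI 1640 with 10% FBS at 10,000 cells/well on 384-well plates. The plates came pre-printed with 70 compounds at five tenfold concentrations spanning 1–10,000 nM, in duplicate, and cells were exposed for 72 h. CellTiter-Glo gave viability, scaled between DMSO wells and wells with 10 μM proteasome inhibitor. Where reported, area under the curve was obtained from log-logistic fits with four parameters using the drc and PharmacoGx R packages.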

[2] = system: myeloid leukemia patient primary cells Pat.5
Procedure, shortened: as §1

[3] = system: myeloid leukemia patient primary cells Pat.6
Procedure, shortened: as §1

[4] = system: myeloid leukemia patient primary cells Pat.8
Procedure, shortened: as §1

Row | Structure (SMILES) | cell viability ([1]; 1 nM) | cell viability ([1]; 10 nM) | cell viability ([1]; 100 nM) | cell viability ([1]; 1000 nM) | cell viability ([1]; 10000 nM) | cell viability ([2]; 1 nM) | cell viability ([2]; 10 nM) | cell viability ([2]; 100 nM) | cell viability ([2]; 1000 nM) | cell viability ([2]; 10000 nM) | cell viability ([3]; 1 nM) | cell viability ([3]; 10 nM) | cell viability ([3]; 100 nM) | cell viability ([3]; 1000 nM) | cell viability ([3]; 10000 nM) | cell viability ([4]; 1 nM) | cell viability ([4]; 10 nM) | cell viability ([4]; 100 nM) | cell viability ([4]; 1000 nM) | cell viability ([4]; 10000 nM)
1 | Sc1ncnc2nc[nH]c12 [6-mercaptopurine] | 92.6% | > 100% | 74.8% | 97.9% | 88% | 8.91% | 64.1% | 35.4% | 17.2% | 1.33% | 89.3% | > 100% | 99.8% | 88.3% | 97.9% | 80.3% | > 100% | 86.2% | 75.1% | 73%
2 | Cc1noc2c1-c1ccccc1C(c1ccc(Cl)cc1)=N[C@H]2CC(N)=O [CPI-0610] | > 100% | 84.9% | 86.4% | 60.3% | 60.7% | 81.3% | 12.4% | 82.4% | 7.88% | 10.1% | > 100% | 87.9% | > 100% | 87.9% | 69.7% | 93.5% | 78.8% | 96.1% | 70% | 82.7%
3 | Nc1ccn([C@@H]2O[C@H](CO)[C@@H](O)[C@@H]2O)c(=O)n1 [Cytarabine] | 85.1% | 65.1% | 78.1% | 62.9% | 15.8% | 84.9% | 1.18% | 24.7% | 1.18% | 2.01% | > 100% | 78.9% | 89.5% | 86.6% | 36.2% | 90.3% | 91.5% | 96.1% | 89.1% | 22.4%
4 | CCN(CC)CCN(Cc1ccc(-c2ccc(C(F)(F)F)cc2)cc1)C(=O)Cn1c(SCc2ccc(F)cc2)nc(=O)c2c1CCC2 [Darapladib] | 65.7% | 92.2% | 52.5% | 52.1% | 2.36% | 12.5% | 23.9% | 5.8% | < 0% | 8.02% | 80.4% | 90% | 72.6% | 79.3% | 0.0489% | 62.6% | 85.8% | 77.8% | 86.2% | 1.84%
5 | CC12CCC(O)CC1CCC1C2CCC2(C)C(C3=CC(=O)OC3)CCC12O (stereo not given) [Digitoxigenin] | 95% | 66.5% | 78.4% | 22.2% | 18.3% | 56.2% | 38.7% | 33.1% | 0.265% | 4.43% | 99.7% | 92.2% | 93.7% | 39.5% | 11.2% | 91.6% | 89% | 78.4% | 7.34% | 2.31%
6 | C[C@H]1O[C@@H](O[C@H]2[C@@H](O)C[C@H](O[C@H]3[C@@H](O)C[C@H](O[C@H]4CC[C@@]5(C)[C@H](CC[C@@H]6[C@@H]5C[C@@H](O)[C@]5(C)[C@@H](C7=CC(=O)OC7)CC[C@]65O)C4)O[C@@H]3C)O[C@@H]2C)C[C@H](O)[C@@H]1O [Digoxin] | 82.1% | 90.3% | 69.7% | 18.9% | 13.5% | 82.9% | 77.9% | 9.05% | 2.24% | < 0% | 98% | 96% | 87% | 25.4% | 6.2% | 84.6% | 96.1% | 67.2% | 6.59% | 5.15%
7 | Clc1ccc(COC(Cn2ccnc2)c2ccc(Cl)cc2Cl)cc1 (stereo not given) [Econazole] | 64.1% | 90.1% | 82.3% | 76.3% | 0.228% | 42.3% | 90.6% | 35.2% | 6.55% | 1.33% | 91.4% | 96% | 92.2% | 84.9% | 44.9% | 93.3% | 86.9% | 81% | > 100% | 85.3%
8 | C[C@]12O[C@H](C[C@]1(O)CO)n1c3ccccc3c3c4c(c5c6ccccc6n2c5c31)CNC4=O [Lestaurtinib] | 80.7% | 43.5% | 77.9% | 40.6% | 4.31% | 22.6% | 2.27% | 10% | 11.2% | < 0% | 87.2% | 66.8% | 73.2% | 93.9% | 8.53% | 87.6% | 75.8% | 61.9% | 54.6% | 0.632%
9 | CC(Cc1ccc(O)c(O)c1)C(C)Cc1ccc(O)c(O)c1 (stereo not given) [Masoprocol] | > 100% | 85.7% | 96.7% | 55.8% | 68.1% | 57.1% | 7.88% | 76.6% | 21.6% | > 100% | 97.8% | 94.2% | > 100% | 72.2% | 33.9% | 97.6% | 84.9% | 95.6% | 69.7% | 6.74%
10 | COc1c(C)c2c(c(O)c1C/C=C(\C)CCC(=O)O)C(=O)OC2 [Mycophenolic acid] | 75.3% | 83.7% | 65.6% | 95.5% | 93.4% | < 0% | 62.9% | 26% | 67.3% | > 100% | 83.4% | 97.6% | 81.8% | 93.2% | > 100% | 69.4% | 92.3% | 75.5% | 91.8% | 43.8%
11 | CCOC(=O)N1c2ccc(C(F)(F)F)cc2[C@@H](N(Cc2cc(C(F)(F)F)cc(C(F)(F)F)c2)C(=O)OC)C[C@H]1CC [Torcetrapib] | 84.7% | 51% | > 100% | 78.3% | 41.7% | 56.9% | 0.265% | 97.4% | 27.5% | 1.18% | 89.2% | 80.7% | > 100% | > 100% | 50.4% | 92.3% | 84.8% | 96.1% | 93.3% | 65.7%
